According to PMC10355216, “The C-terminal tail of CSNAP attenuates the CSN complex” (Life Science Alliance, 2023):

Assays:
CSN^ΔCSNAP complex = test: Peptide array screen of C-CSNAP peptides with rCSN^ΔCSNAP; assay type: binding; conditions: average of 5 experiments;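 also: Array-printed peptides incubated with 0.5 µM CSN^ΔCSNAP, bound complex detected by anti-CSN3 antibody plus HRP-linked secondary, spot intensity expressed relative to the parent reference peptide spot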
Protocol: Peptide array screen of modified C-CSNAP peptides. C-CSNAP peptide and its derivatives were printed on a microarray. The array was blocked and incubated with or without the CSN∆CSNAP complex and probed using an anti-CSN3 antibody and HRP-conjugated secondary antibody. To assess non-specific binding of the antibodies to the array, anti-CSN3 and anti-GAR-HRP were used without the addition of the COP9 signalosome complex (CSN). Signal intensity of each spot was measured and normalized to the intensity of the spot of C-CSNAP (A1). Measured values for each spot were averaged from six arrays and plotted with standard errors SEM.
Intensity values are normalized to the intensity of the 16AA C-CSNAP peptide (A1) on each array from three independent experiments in duplicates, and averages from the six replicates are calculated with SEM.
Optimization of C-CSNAP sequence for enhanced binding to recombinant CSN^ΔCSNAP was screened by printing the modified sequences of CSNAP or C-CSNAP (Phe to Trp, Asp to Glu, Ala screen, D-amino acid screen, N-α-methylation, and Aib incorporation on INTAVIS Celluspots array [2 × 384spots]). The array was blocked with 5% skim milk in TBS-0.5% Tween 20 (TBS-T) for 4 h at room temperature, washed three times in TBS-T, and then incubated with 0.5 μM CSN^ΔCSNAP in 5% milk–TBS-T. Bound CSN^ΔCSNAP was visualized by incubating with anti-CSN3 (ab79698) antibody (1:10,000, overnight) and goat-anti-rabbit-HRP secondary antibody (1:10,000, 1 h).

recombinant CSN complex = test: Peptide array screen of C-CSNAP peptides with recombinant CSN (rCSN^WT); assay type: binding; conditions: for Average fold change: peptide array with rCSN, average of 3 experiments, left and right (n = 6), fold of C-CSNAP (A1); for Average fold change, intensities as fold of C-CSNAP (A1): rCSN^WT on INTAVIS Celluspots array, anti-CSN3 and HRP secondary antibody, average of six replicates (three independent experiments in duplicates);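 as to all read-outs here: densitometric signal of CSN bound to each synthesized peptide spot, with an antibody-only array lacking CSN run to exclude non-specific binding, higher values meaning stronger binding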
[1] = peptide array, rCSN^ΔCSNAP, left and right spots
[2] = peptide array with rCSN^ΔCSNAP, left and right (n = 10), fold of C-CSNAP (A1)

Sequence: EFFNDFEDLFEEEDIQ [D42,52,53,54E]
- Average fold change (CSN^ΔCSNAP complex; [1]): 1.1111 fold of C-CSNAP (A1)
- Average fold change (recombinant CSN complex): 0.7432 fold

Sequence: EAGGSTGLLMDLAANEKAVHADFFNDFEDLFDDDDIQ [Position A22, CSNAP residues 21-57]
- Average fold change (CSN^ΔCSNAP complex; [2]): 1.3163 fold
- Average fold change, intensities as fold of C-CSNAP (A1) (recombinant CSN complex): 1.1428 fold of C-CSNAP (A1)

Sequence: EFFNEFEELFEDDDIQ [D42,46,49,52E]
- Average fold change (CSN^ΔCSNAP complex; [1]): 1.0318 fold of C-CSNAP (A1)
- Average fold change (recombinant CSN complex): 0.5168 fold

Sequence: GGSTGLLMDLAANEKAVHADFFNDFEDLFDDDDIQ [Position A20, CSNAP residues 23-57]
- Average fold change (CSN^ΔCSNAP complex; [2]): 1.1737 fold
- Average fold change, intensities as fold of C-CSNAP (A1) (recombinant CSN complex): 0.8793 fold of C-CSNAP (A1)

Sequence: DFFNEFEELFDDDDIQ [Position D16, C-CSNAP, Asp to Glu substitution D46,49E]
- Average fold change (CSN^ΔCSNAP complex; [1]): 1.2614 fold of C-CSNAP (A1)
- Average fold change, intensities as fold of C-CSNAP (A1) (recombinant CSN complex): 0.7250 fold of C-CSNAP (A1)

Sequence: DFFNEFEELFEEDDIQ [D46,49,52,53E]
- Average fold change (CSN^ΔCSNAP complex; [1]): 0.8013 fold of C-CSNAP (A1)
- Average fold change (recombinant CSN complex): 0.5885 fold

Sequence: DLDEAGGSTGLLMDLAANEKAVHADFFNDFEDLFDDDDIQ [B 1, CSNAP residues 18-57]
- Average fold change (CSN^ΔCSNAP complex; [2]): 0.9126 fold
- Average fold change, intensities as fold of C-CSNAP (A1) (recombinant CSN complex): 1.1704 fold of C-CSNAP (A1)

Sequence: EFFNEFEELFDDEDIQ [D42,46,49,54E]
- Average fold change (CSN^ΔCSNAP complex; [1]): 1.0465 fold of C-CSNAP (A1)
- Average fold change (recombinant CSN complex): 0.5426 fold

Sequence: YVDLDEAGGSTGLLMDLAANEKAVHADFFNDFEDLFDDDDIQ [B 3, CSNAP residues 16-57]
- Average fold change (CSN^ΔCSNAP complex; [2]): 0.9215 fold
- Average fold change, intensities as fold of C-CSNAP (A1) (recombinant CSN complex): 1.1108 fold of C-CSNAP (A1)

Sequence: EFFNEFEDLFDDDDIQ [Position D10, C-CSNAP, Asp to Glu substitution D42,46E]
- Average fold change (CSN^ΔCSNAP complex; [1]): 1.0622 fold of C-CSNAP (A1)
- Average fold change, intensities as fold of C-CSNAP (A1) (recombinant CSN complex): 0.8862 fold of C-CSNAP (A1)

Sequence: DFFNDFEELFDDDDIQ [D 5, C-CSNAP, Asp to Glu substitution D49E]
- Average fold change (CSN^ΔCSNAP complex; [1]): 0.9235 fold of C-CSNAP (A1)
- Average fold change, intensities as fold of C-CSNAP (A1) (recombinant CSN complex): 0.8086 fold of C-CSNAP (A1)

Sequence: KAVHADFFNDFEDLFDDDDIQ [A 6, CSNAP residues 37-57]
- Average fold change (CSN^ΔCSNAP complex; [2]): 0.9179 fold
- Average fold change, intensities as fold of C-CSNAP (A1) (recombinant CSN complex): 1.1025 fold of C-CSNAP (A1)

Sequence: EFFNEFEELFDDDDIQ [E 4, C-CSNAP, Asp to Glu substitution D42,46,49E]
- Average fold change (CSN^ΔCSNAP complex; [1]): 0.8106 fold of C-CSNAP (A1)
- Average fold change, intensities as fold of C-CSNAP (A1) (recombinant CSN complex): 0.8374 fold of C-CSNAP (A1)

Sequence: LAANEKAVHADFFNDFEDLFDDDDIQ [Position A11, CSNAP residues 32-57]
- Average fold change (CSN^ΔCSNAP complex; [2]): 1.1791 fold
- Average fold change, intensities as fold of C-CSNAP (A1) (recombinant CSN complex): 1.1357 fold of C-CSNAP (A1)

Sequence: EFFNDFEELFEEEEIQ [D42,49,52,53,54,55E]
- Average fold change (CSN^ΔCSNAP complex; [1]): 0.9207 fold of C-CSNAP (A1)
- Average fold change (recombinant CSN complex): 0.6132 fold

Sequence: DFFNEFEDLFDDDEIQ [Position D20, C-CSNAP, Asp to Glu substitution D46,55E]
- Average fold change (CSN^ΔCSNAP complex; [1]): 1.3581 fold of C-CSNAP (A1)
- Average fold change, intensities as fold of C-CSNAP (A1) (recombinant CSN complex): 0.7799 fold of C-CSNAP (A1)

Sequence: DFFNDFEDLFDDEDIQ [D 8, C-CSNAP, Asp to Glu substitution D54E]
- Average fold change (CSN^ΔCSNAP complex; [1]): 1.1238 fold of C-CSNAP (A1)
- Average fold change, intensities as fold of C-CSNAP (A1) (recombinant CSN complex): 0.9836 fold of C-CSNAP (A1)

Sequence: VDLDEAGGSTGLLMDLAANEKAVHADFFNDFEDLFDDDDIQ [B 2, CSNAP residues 17-57]
- Average fold change (CSN^ΔCSNAP complex; [2]): 0.8221 fold
- Average fold change, intensities as fold of C-CSNAP (A1) (recombinant CSN complex): 0.7909 fold of C-CSNAP (A1)

Sequence: DFWNDWEDLWDDDDIQ [Position C22, C-CSNAP, Phe to Trp substitution F44,47,51W]
- Average fold change (CSN^ΔCSNAP complex; [1]): 1.2126 fold of C-CSNAP (A1)
- Average fold change, intensities as fold of C-CSNAP (A1) (recombinant CSN complex): 0.6112 fold of C-CSNAP (A1)

Sequence: EFFNEFEELFEDEDIQ [D42,46,49,52,54E]
- Average fold change (CSN^ΔCSNAP complex; [1]): 0.9563 fold of C-CSNAP (A1)
- Average fold change (recombinant CSN complex): 0.5967 fold

Sequence: DFFNEFEELFDDDEIQ [Position E16, C-CSNAP, Asp to Glu substitution D46,49,55E]
- Average fold change (CSN^ΔCSNAP complex; [1]): 0.9545 fold of C-CSNAP (A1)
- Average fold change, intensities as fold of C-CSNAP (A1) (recombinant CSN complex): 0.6983 fold of C-CSNAP (A1)

Sequence: EFFNDFEELFDEDDIQ [Position E10, C-CSNAP, Asp to Glu substitution D42,49,53E]
- Average fold change (CSN^ΔCSNAP complex; [1]): 1.1579 fold of C-CSNAP (A1)
- Average fold change, intensities as fold of C-CSNAP (A1) (recombinant CSN complex): 0.6945 fold of C-CSNAP (A1)

Sequence: DFFNDFEDLFEEEDIQ [D52,53,54E]
- Average fold change (CSN^ΔCSNAP complex; [1]): 1.1046 fold of C-CSNAP (A1)
